Data: patent US5541169A, “Azoxy compound” (Kowa Company, Ltd., priority 1992, dated 1996)
Converted amounts (≈) assume the structure as drawn.

Test system: Trichophyton rubrum
Experiment: Minimum inhibitory concentration, agar plate dilution method (Sabouraud dextrose medium)
Format: cell-based
Settings: T.r.
Method: (§1) The minimum inhibition concentration was assayed by the agar plate dilution method using Sabouraud dextrose medium.

MIC	SMILES
1.6 µg/mL (≈ 3.7 µM)	CC(=C[N+]([O-])=NC(C)C(C)OCC#CI)c1ccccc1Cl (stereo not drawn) [Example 2, 3-(2-(2-chlorophenyl)-1-propenyl-ONN-azoxy)-2-(3-iodo-2-propynyloxy)butane]
0.2 µg/mL (≈ 0.729 µM)	C#CCOc1ccc(C=C[N+]([O-])=NC(C)C(C)O)cc1 (stereo not drawn) [Example 3, 3-(4-(2-propynyloxy)styryl-ONN-azoxy)-2-butanol]
1.6 µg/mL (≈ 4.28 µM)	CC(O)C(C)N=[N+]([O-])c1ccc(OCC#CI)cc1 (stereo not drawn) [Example 11, 3-(4-(3-iodo-2-propynyloxy)phenyl-ONN-azoxy)-2-butanol]
1.6 µg/mL (≈ 4.28 µM)	C[C@H](N=[N+]([O-])c1ccc(OCC#CI)cc1)[C@@H](C)O [Example 17, 2(R)-3(S)-3-(4-(3-iodo-2-propynyloxy)phenyl-ONN-azoxy)-2-butanol]

Test system: Microsporum canis
Experiment: as above
Format: cell-based
Settings: M.c.
Method: as §1

MIC	SMILES
1.6 µg/mL (≈ 3.7 µM)	CC(=C[N+]([O-])=NC(C)C(C)OCC#CI)c1ccccc1Cl (stereo not drawn) [Example 2, 3-(2-(2-chlorophenyl)-1-propenyl-ONN-azoxy)-2-(3-iodo-2-propynyloxy)butane]
0.2 µg/mL (≈ 0.729 µM)	C#CCOc1ccc(C=C[N+]([O-])=NC(C)C(C)O)cc1 (stereo not drawn) [Example 3, 3-(4-(2-propynyloxy)styryl-ONN-azoxy)-2-butanol]
0.8 µg/mL (≈ 2.14 µM)	CC(O)C(C)N=[N+]([O-])c1ccc(OCC#CI)cc1 (stereo not drawn) [Example 11, 3-(4-(3-iodo-2-propynyloxy)phenyl-ONN-azoxy)-2-butanol]
0.8 µg/mL (≈ 2.14 µM)	C[C@H](N=[N+]([O-])c1ccc(OCC#CI)cc1)[C@@H](C)O [Example 17, 2(R)-3(S)-3-(4-(3-iodo-2-propynyloxy)phenyl-ONN-azoxy)-2-butanol]

Test system: Candida albicans
Experiment: as above
Format: cell-based
Settings: C.a.
Method: as §1

MIC	SMILES
50 µg/mL (≈ 116 µM)	CC(=C[N+]([O-])=NC(C)C(C)OCC#CI)c1ccccc1Cl (stereo not drawn) [Example 2, 3-(2-(2-chlorophenyl)-1-propenyl-ONN-azoxy)-2-(3-iodo-2-propynyloxy)butane]
25 µg/mL (≈ 91.1 µM)	C#CCOc1ccc(C=C[N+]([O-])=NC(C)C(C)O)cc1 (stereo not drawn) [Example 3, 3-(4-(2-propynyloxy)styryl-ONN-azoxy)-2-butanol]
6.3 µg/mL (≈ 16.8 µM)	CC(O)C(C)N=[N+]([O-])c1ccc(OCC#CI)cc1 (stereo not drawn) [Example 11, 3-(4-(3-iodo-2-propynyloxy)phenyl-ONN-azoxy)-2-butanol]
6.3 µg/mL (≈ 16.8 µM)	C[C@H](N=[N+]([O-])c1ccc(OCC#CI)cc1)[C@@H](C)O [Example 17, 2(R)-3(S)-3-(4-(3-iodo-2-propynyloxy)phenyl-ONN-azoxy)-2-butanol]

Test system: Trichophyton mentagrophytes
Experiment: as above
Format: cell-based
Settings: T.m.
Method: as §1

MIC	SMILES
1.6 µg/mL (≈ 3.7 µM)	CC(=C[N+]([O-])=NC(C)C(C)OCC#CI)c1ccccc1Cl (stereo not drawn) [Example 2, 3-(2-(2-chlorophenyl)-1-propenyl-ONN-azoxy)-2-(3-iodo-2-propynyloxy)butane]
1.6 µg/mL (≈ 4.28 µM)	CC(O)C(C)N=[N+]([O-])c1ccc(OCC#CI)cc1 (stereo not drawn) [Example 11, 3-(4-(3-iodo-2-propynyloxy)phenyl-ONN-azoxy)-2-butanol]
1.6 µg/mL (≈ 4.28 µM)	C[C@H](N=[N+]([O-])c1ccc(OCC#CI)cc1)[C@@H](C)O [Example 17, 2(R)-3(S)-3-(4-(3-iodo-2-propynyloxy)phenyl-ONN-azoxy)-2-butanol]

Test system: not listed separately
Experiment: Stability in ethanol (residual ratio by HPLC)
Format: physicochemical
Settings: 50% ethanol, 4° C., 3 months; 50% ethanol solution, 0.01%
Method: The residual ratio was determined under the following conditions by the HPLC method.
*Measured in a 50% ethanol solution (sample concentration: 0.01%)
Column: STR ODSM 4.6 × 150 mm
Injection volume: 40 μl
Mobile phase: CH3 CN:H2 O (1:1)
Temperature: room temperature

remaining at 2160 h	SMILES
100%	C[C@H](N=[N+]([O-])c1ccc(OCC#CI)cc1)[C@@H](C)O [Example 17, 2(R)-3(S)-3-(4-(3-iodo-2-propynyloxy)phenyl-ONN-azoxy)-2-butanol]

Same assay, conditions: 50% ethanol, 4° C., 12 days; 50% ethanol solution, 0.01%

remaining at 288 h	SMILES
99.3%	CC(=NO)[C@H](C)N=[N+]([O-])/C=C/c1ccc(OCC#CI)cc1 [Control, reference compound]
100%	C[C@H](N=[N+]([O-])c1ccc(OCC#CI)cc1)[C@@H](C)O [Example 17, 2(R)-3(S)-3-(4-(3-iodo-2-propynyloxy)phenyl-ONN-azoxy)-2-butanol]

Same assay, conditions: 50% ethanol, 25° C., 3 months; 50% ethanol solution, 0.01%

remaining at 2160 h	SMILES
99.4%	C[C@H](N=[N+]([O-])c1ccc(OCC#CI)cc1)[C@@H](C)O [Example 17, 2(R)-3(S)-3-(4-(3-iodo-2-propynyloxy)phenyl-ONN-azoxy)-2-butanol]

Same assay, conditions: 50% ethanol, 25° C., 12 days; 50% ethanol solution, 0.01%

remaining at 288 h	SMILES
95.8%	CC(=NO)[C@H](C)N=[N+]([O-])/C=C/c1ccc(OCC#CI)cc1 [Control, reference compound]
102%	C[C@H](N=[N+]([O-])c1ccc(OCC#CI)cc1)[C@@H](C)O [Example 17, 2(R)-3(S)-3-(4-(3-iodo-2-propynyloxy)phenyl-ONN-azoxy)-2-butanol]

Same assay, conditions: 50% ethanol, 40° C., 3 months; 50% ethanol solution, 0.01%

remaining at 2160 h	SMILES
100%	C[C@H](N=[N+]([O-])c1ccc(OCC#CI)cc1)[C@@H](C)O [Example 17, 2(R)-3(S)-3-(4-(3-iodo-2-propynyloxy)phenyl-ONN-azoxy)-2-butanol]

Same assay, conditions: 50% ethanol, 40° C., 12 days; 50% ethanol solution, 0.01%

remaining at 288 h	SMILES
96.6%	CC(=NO)[C@H](C)N=[N+]([O-])/C=C/c1ccc(OCC#CI)cc1 [Control, reference compound]
99.8%	C[C@H](N=[N+]([O-])c1ccc(OCC#CI)cc1)[C@@H](C)O [Example 17, 2(R)-3(S)-3-(4-(3-iodo-2-propynyloxy)phenyl-ONN-azoxy)-2-butanol]

Same assay, conditions: 50% ethanol, pH 4, pH 4, 40° C., 3 months; 50% ethanol solution, 0.01%

remaining at 2160 h	SMILES
100%	C[C@H](N=[N+]([O-])c1ccc(OCC#CI)cc1)[C@@H](C)O [Example 17, 2(R)-3(S)-3-(4-(3-iodo-2-propynyloxy)phenyl-ONN-azoxy)-2-butanol]

Same assay, conditions: 50% ethanol, pH 4, pH 4, 40° C., 12 days; 50% ethanol solution, 0.01%

remaining at 288 h	SMILES
0%	CC(=NO)[C@H](C)N=[N+]([O-])/C=C/c1ccc(OCC#CI)cc1 [Control, reference compound]
99.7%	C[C@H](N=[N+]([O-])c1ccc(OCC#CI)cc1)[C@@H](C)O [Example 17, 2(R)-3(S)-3-(4-(3-iodo-2-propynyloxy)phenyl-ONN-azoxy)-2-butanol]

Same assay, conditions: 50% ethanol, pH 6, pH 6, 40° C., 3 months; 50% ethanol solution, 0.01%

remaining at 2160 h	SMILES
99.9%	C[C@H](N=[N+]([O-])c1ccc(OCC#CI)cc1)[C@@H](C)O [Example 17, 2(R)-3(S)-3-(4-(3-iodo-2-propynyloxy)phenyl-ONN-azoxy)-2-butanol]

Same assay, conditions: 50% ethanol, pH 6, pH 6, 40° C., 12 days; 50% ethanol solution, 0.01%

remaining at 288 h	SMILES
79.7%	CC(=NO)[C@H](C)N=[N+]([O-])/C=C/c1ccc(OCC#CI)cc1 [Control, reference compound]
100%	C[C@H](N=[N+]([O-])c1ccc(OCC#CI)cc1)[C@@H](C)O [Example 17, 2(R)-3(S)-3-(4-(3-iodo-2-propynyloxy)phenyl-ONN-azoxy)-2-butanol]

Same assay, conditions: 50% ethanol, pH 8, pH 8, 40° C., 3 months; 50% ethanol solution, 0.01%

remaining at 2160 h	SMILES
100%	C[C@H](N=[N+]([O-])c1ccc(OCC#CI)cc1)[C@@H](C)O [Example 17, 2(R)-3(S)-3-(4-(3-iodo-2-propynyloxy)phenyl-ONN-azoxy)-2-butanol]

Same assay, conditions: 50% ethanol, pH 8, pH 8, 40° C., 12 days; 50% ethanol solution, 0.01%

remaining at 288 h	SMILES
91.4%	CC(=NO)[C@H](C)N=[N+]([O-])/C=C/c1ccc(OCC#CI)cc1 [Control, reference compound]
100%	C[C@H](N=[N+]([O-])c1ccc(OCC#CI)cc1)[C@@H](C)O [Example 17, 2(R)-3(S)-3-(4-(3-iodo-2-propynyloxy)phenyl-ONN-azoxy)-2-butanol]
